Patent US20150273088A1 (Board of Regents, The University of Texas System, priority 2014, published 2015)

Columns and labels:
[1] = test system: HT1080 cells (endogenous IDH1 R132C); experiment: 2HG fluorimetric assay / high-throughput screen, secreted 2HG in media; type: cell-based, human; conditions: for Secreted (extracellular) 2HG: HT1080 cells, 48 hours, fluorescent assay, normalized to viability; for Viability in high-throughput screen (Alamar Blue) / 2HG in high-throughput screen: HT1080, 48 hours; for 2HG in high-throughput screen: screen hits top left quadrant
Procedure: 2HG fluorimetric assay. N-terminal 6×-His tagged PHGDH was expressed and purified from chemically competent BL-21 E. coli using Ni-NTA agarose (Qiagen) (Grant et al., 1999). Purified protein was then dialyzed in 40 mM KPO4 buffer at 4° C. overnight. Conditioned culture media (DMEM or aMEM) containing 2HG was neutralized with 60 mM HCL for 10 minutes followed by 60 mM Tris base. A 20 μL aliquot of neutralized conditioned media was then mixed with 90 μL of optimized assay reaction mix consisting of 5 μg purified PHGDH enzyme, 12.5 μM resazurin (Sigma-Aldrich), 0.125 U/ml diaphorase (Sigma-Aldrich), 1 mM NAD (Sigma-Aldrich), 40 mM Tris-HCl pH 8.8, and incubated for 90 minutes in a 96-well plate. Resorufin fluorescence was then quantified using a FLUOstar™ OPTIMA fluorescence plate reader (BMG Labtech) with excitation and emission peaks of 544 nm and 590 nm, respectively. Measurements were background subtracted (neutralized fresh media) and normalized either to total protein or viability as measured by Alamar Blue (Naik et al., 2009).
High-throughput screening. Screening was carried out using the Beckman Coulter (Fullerton, Calif.) Core Robotics system, including an FX liquid handler, controlled by the Sagian graphical method development tool (SAMI scheduling software). The Institute of Chemistry and Cell Biology (ICCB) Known Bioactives Library (Enzo Lifescience, BML-2840-0100) was diluted 1:200 in αMEM and 50 μL were added to pre-plated HT1080 cells. After 48 hours of incubation, media was removed and 2HG in the media was measured using the fluorimetric assay. Fresh 2HG fluorimetric assay reaction mix was prepared immediately before assaying each screen plate to limit background modulation. Cell viability was determined using Alamar Blue, as described previously (Naik et al., 2009).
To identify screen hits and account for differences in compound toxicity, 2HG fluorescence was first median-centered around DMSO treatment controls within each screen plate. 2HG fluorescence was then plotted against viability such that a correlation between the two measurements could be visualized. A linear fit and 95% predictive interval (P.I.) were then determined and plotted using GraphPad Prism (GraphPad Software).

[2] = test system: D54 glioblastoma cells expressing IDH1 R132H; conditions: cited from earlier work
HT1080 cells = experiment: GC-MS quantification of 2HG and upstream metabolites in HT1080 cells; type: cell-based, human; conditions: for Cellular 3-phosphoglycerate (3PG) level: HT1080, 300 μM Zaprinast or 10 μM BPTES
Procedure: (§1) GC-MS analysis. Metabolite extraction from cultured cells was performed as described previously by Figueroa et al. (2010). Briefly, cells were rinsed in ice cold PBS and rapidly quenched with 80% methanol spiked with 3-hydroxy-1,5-pentanedioic-2,2,3,4,4-d5 acid (CDN Isotopes, Quebec Canada) as an internal standard. Extracts were then incubated at −80° C. for 20 minutes, sonicated on ice, centrifuged at 14,000×g for 20 minutes at 4° C. to clear precipitate proteins, and supernatants transferred to vials for drying under N2. Derivatizing reagent (MSTFA (N-methyl-N-(trimethylsilyl)trifluoroacetamide):pyridine:acetonitrile 1:1:2) was added to the vials, which were then heated at 70° C. for 15 minutes.
(§2) Derivatized samples were analyzed on an Agilent 7890A gas chromatograph interfaced to an Agilent 5975C mass spectrometer. The GC column used for the study was a HP-5MS (30 m, 0.25 mm i.d., 0.25 μm film coating). A linear temperature gradient was used. The initial temperature of 80° C. was held for 2 minute and increased to 300° C. at 10° C./minute. The temperature was held at 300° C. for 2 minutes. The samples were run by electron ionization (EI) and the source temperature, electron energy, and emission current were 200° C., 70 eV, and 300 μA, respectively. The injector and transfer line temperatures were 250° C. 3-Hydroxy-1,5-pentanedioic-2,2,3,4,4-d5 acid was used as the internal standard in SIM mode for quantitation of 2-hydroxyglutaric acid. Quantitation was carried out by monitoring the ions at m/z 347 (glutamine and αKG), 348 (glutamate), 349 (2-hydroxyglutaric acid), and 354 (3-hydroxy-1,5-pentanedioic-2,2,3,4,4-d5).

[3] = test system: PDAC cells Panc1 and MiaPaca2; experiment: ROS quantification (DCFDA); type: cell-based; conditions: 48 hours
Procedure: ROS quantification. Reactive oxygen species levels in PDAC cells were quantified using 2,7-dichlorofluorescein diacetate (DCFDA). Following 48 hours of drug treatment in a 96-well plate, cells were washed with PBS, stained for 30 minutes at 37° C. with 20 μM DCFDA, and imaged using an InCell Analyzer 1000. A 10× objective was used to collect 16 fluorescent and bright field images per well with a 10% overlap to allow image stitching. Stained cells were then quantified using the GE InCell Investigator software package with Developer Toolbox.

[4] = test system: PDAC cells Panc1 and MiaPaca2; experiment: GC-MS of glutamine, glutamate and αKG in PDAC cells; type: cell-based; conditions: 300 μM, 48 hours
Procedure: as §1, §2

[5] = test system: NHA cells expressing IDH1 R132H; experiment: Soft agar colony assay; type: cell-based, human; conditions: IDH1 R132H astrocytes
From the text: Soft agar assay. A bottom layer of 0.6% soft agar with complete DMEM and 10% FBS was set in 6-well plates and allowed to solidify. Approximately 8,000 cells were then suspended in 0.4% soft agar and plated on top. Colonies were allowed to develop over 3-4 weeks and stained with crystal violet.

[6] = test system: NHA cells expressing IDH1 R132H or wild type IDH1; experiment: Histone lysine methylation by Western blot in immortalized NHA cells; type: cell-based, human
Procedure: Histone extraction and Western blot analysis. For extraction of total cellular protein, cells were lysed in RIPA buffer (150 mM NaCl, 50 mM Tris, 5 mM EDTA, 1% NP-40, 0.1% SDS, 0.5% sodium deoxycholate, pH 7.4), supplemented with protease inhibitor cocktail (Roche), sodium orthovanadate (1 mM), and PMSF (1 mM). Whole-cell lysates were normalized for protein content by BCA assay (Pierce). Histone extraction was performed using an EpiQuik™ Total Histone Extraction Kit (Epigentek) and extracted protein was quantified using a Bradford assay.
Proteins were resolved by SDS-PAGE, transferred to a PVDF membrane and probed with the following antibodies: IDH1 (Origene, TA500610), 6× His (Abcam, ab1187), H3K9Me2 (Cell Signaling, 4658p), H3K9Me3 (Abcam, ab8898), H3K27Me3 (Millipore, 07-449), H3K79Me2 (Cell Signaling, 9757p), total H3 (Cell Signaling, 4499p), and Actin. Secondary anti-mouse and anti-rabbit horseradish peroxidase-conjugated IgG antibodies were used for detection.

[7] = test system: PDAC cells Panc1 and MiaPaca2; experiment: Sensitivity to H2O2, viability by Alamar Blue; type: cell-based
From the text: (§3) Cell culture, transfection, and generation of stable cell lines. HT1080, HEK293T, Panc1, and MIA PaCa-2 cells were obtained from the American Type Culture Collection (ATCC). Normal human astrocytes (NHA) immortalized with E6/E7/hTERT were a kind gift from Dr. Russell O. Pieper (University of California, San Francisco). All cells tested negative for mycoplasma infection. HT1080 cells were authenticated by genotyping for IDH1 and were confirmed to harbor a heterozygous IDH1 R132C mutation by Sanger sequencing of genomic DNA products. The remaining cell lines were not further authenticated. HEK293T, NHA, PANC-1, and MIA Paca-2 cells were maintained with complete DMEM containing 10% fetal bovine serum (FBS) and 1% penicillin/streptomycin (P/S). HT1080 cells were maintained in αMEM containing 10% FBS and 1% P/S. Glutamine-free DMEM (Life Technologies) was supplemented with 10% FBS and 1% P/S and spiked with varying amounts of L-glutamine (Cellgro) for glutamine growth curves.

[8] = test system: NHA cells ectopically expressing R132H IDH1; experiment: GC-MS quantification of 2HG and upstream metabolites in NHA cells expressing IDH1 R132H; type: cell-based, human; conditions: 48 hours
Procedure: as §1
as §2, with “The temperature was held at 300° C. for 2 minutes. The samples were run by electron ionization (EI) and the source temperature, electron energy, and emission current were 200° C., 70 eV, and 300 μA, respectively. The injector and transfer line temperatures were 250° C.” left out

[9] = test system: PDAC cells Panc1 and MiaPaca2; experiment: Growth of PDAC cells; type: cell-based
From the text: as §3

[10] = biological target: T1, purified, full length, human GLS1 (Homo sapiens, UniProt O94925); experiment: Glutaminase assay (two-step, purified enzyme); type: biochemical
T1 construct: 6xHis (N); made in house; host or cells: E. coli BL-21
T1 sequence (O94925 55-669): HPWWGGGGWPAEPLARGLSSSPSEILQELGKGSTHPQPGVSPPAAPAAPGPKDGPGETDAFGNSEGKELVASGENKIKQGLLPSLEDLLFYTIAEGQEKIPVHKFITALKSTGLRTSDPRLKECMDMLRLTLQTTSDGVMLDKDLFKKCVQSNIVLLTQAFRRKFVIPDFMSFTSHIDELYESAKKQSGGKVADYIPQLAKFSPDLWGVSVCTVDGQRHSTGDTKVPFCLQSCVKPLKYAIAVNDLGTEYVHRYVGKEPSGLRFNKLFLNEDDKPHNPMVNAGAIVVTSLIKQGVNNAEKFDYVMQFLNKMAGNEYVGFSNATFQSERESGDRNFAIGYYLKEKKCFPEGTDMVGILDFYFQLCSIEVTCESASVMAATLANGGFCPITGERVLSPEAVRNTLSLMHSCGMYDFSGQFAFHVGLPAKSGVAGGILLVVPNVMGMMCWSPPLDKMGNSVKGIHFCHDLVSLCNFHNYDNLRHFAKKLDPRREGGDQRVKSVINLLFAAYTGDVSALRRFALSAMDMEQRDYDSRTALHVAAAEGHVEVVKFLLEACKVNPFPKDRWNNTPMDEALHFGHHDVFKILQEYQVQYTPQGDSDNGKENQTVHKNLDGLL
Procedure: Glutaminase assay. N-terminal 6×-His tagged GLS1 was expressed and purified from chemically competent BL-21 E. coli using Ni-NTA agarose beads (Qiagen). Purified protein was then dialyzed in a 50 mM Tris-phosphate buffer containing 1 mM dithiothreitol at 4° C. overnight. A previously described two-step assay was used to measure glutaminase activity (Kenny et al., 2003). […] […] […] For the second step of the assay, 20 μL of completed and quenched initial reaction were transferred to a new plate and 200 μL of secondary reaction mix containing 0.4 mg bovine liver glutamate dehydrogenase (Sigma-Aldrich), 0.09 M Tris-acetate (pH 9.4), 0.2 M hydrazine, 0.25 mM ADP, and 2 mM NAD was added. Samples were incubated for 40 minutes at room temperature and absorbance of NADH (340 nm) was measured using a microplate spectrophotometer.

For `Nc1nc2c(nc(Br)n2[C@@H]2O[C@@H]3COP(=O)(O)O[C@H]3[C@H]2O)c(=O)[nH]1` [8-bromo-cGMP], the “Secreted (extracellular) 2HG” value [1] was “did not cause a reduction”.

For `O=C(Cc1ccccc1)Nc1nnc(CCSCCc2nnc(NC(=O)Cc3ccccc3)s2)s1` [BPTES], the “2HG levels in D54 cells” value [2] is given as “unaffected”, the “Growth of D54 cells expressing IDH1 R132H compared to wild type IDH1” value [2] is given as “preferentially limits growth” and the “Cellular 3-phosphoglycerate (3PG) level” value (HT1080 cells) is given as “did not cause an elevation”.

For `COCc1cc(O)c(O)c(O)c1-c1c(COC)cc(O)c(O)c1O` [HBDDE], the “Viability in high-throughput screen (Alamar Blue)” value [1] was “little effect on viability” and the “2HG in high-throughput screen” value [1] was “reduced 2HG”.

In the case of `CCCc1nn(C)c2c(=O)[nH]c(-c3cc(S(=O)(=O)N4CCN(C)CC4)ccc3OCC)nc12` [Sildenafil], the “Secreted (extracellular) 2HG” value [1] is reported as “no change”.

For `CCCOc1ccccc1-c1nc2nn[nH]c2c(=O)[nH]1` [Zaprinast, 5-(2-propoxyphenyl)-1H-[1,2,3]triazolo[4,5-d]pyrimidin-7(4H)-one], the “Reactive oxygen species (DCFDA-positive cells)” value [3] was “increase in reactive oxygen species (ROS) in a concentration-dependent manner”, the Cellular glutamine [4] was “increase” and the “Cellular pool of glutamate” value [4] was “significant reductions”. For the same molecule, the “Cellular pool of αKG” value [4] was “significant reductions”, the “Soft agar colony formation” value [5] was “reduced colony formation in IDH1 R132H astrocytes down to the level of vector and wild-type cells” and the “Cellular 3-phosphoglycerate (3PG) level” value (HT1080 cells) was “did not cause an elevation”. For the same molecule, the Cellular alpha-ketoglutarate level (HT1080 cells; HT1080, 48 hours) was “reduced”, the Cellular glutamate level (HT1080 cells; HT1080, 48 hours) was “reduced” and the “Intracellular 2HG by GC-MS” value (HT1080 cells; HT1080, 48 hours) was “modulated in a concentration-dependent manner”. The Intracellular glutamine level (HT1080 cells; HT1080, 48 hours) was “unaffected”, the “Methylation levels of H3K9Me2 or H3K9Me3” value ([6]; IDH1 WT expressing astrocytes, 300 μM) was “did not produced such a marked reduction” and the “Histone methylation marks (H3K9Me2, H3K9Me3, H3K27Me3, H3K79Me2)” value ([6]; astrocytes expressing R132H IDH1) was “marked reduction toward baseline methylation levels”. For the same molecule, the “Sensitivity to oxidative damage after adding back glutamate” value ([7]; Zaprinast with 5 mM glutamate) was “nearly completely abolished the increased sensitivity to oxidative damage”, the “Susceptibility to hydrogen peroxide stress versus vehicle” value ([7]; cells pretreated with Zaprinast) was “significantly more susceptible” and the “Intracellular 2HG by GC-MS” value [8] was “modulated in a concentration-dependent manner”. For the same molecule, the “Pattern of 2HG and upstream metabolite changes” value ([8]; compared with HT1080) was “the same pattern of metabolite level changes”, the “Viability in high-throughput screen (Alamar Blue)” value [1] was “little effect on viability” and the “2HG in high-throughput screen” value [1] was “reduced 2HG”. The “Secreted (extracellular) 2HG” value [1] was “concentration-dependent reduction”, the “Concentration required to observe a significant reduction in 2HG” value ([1]; in cells) was 100 to 300 µM and the “Growth of PDAC cells” value ([9]; 100 μM and 300 μM Zaprinast) was “significantly reduced”. The “Growth of PDAC cells with glutamate supplementation” value ([9]; Zaprinast with 5 mM glutamate) was “restoration of growth”, the “Mode of GLS1 inhibition” value ([10]; Lineweaver-Burk, with respect to glutamine) was “noncompetitive inhibitor” and the IC50 ([10]; purified human GLS1, read-out: IC50, enzymatic activity of GLS1) was about 200 µM. It also gave a Ki ([10]; read-out: Ki, GLS1 kinetic analysis) of 220 µM.

In the case of `Nc1nc2c(ncn2[C@@H]2O[C@@H]3COP(=O)(O)O[C@H]3[C@H]2O)c(=O)[nH]1` [cGMP], the “Effect on GLS1 enzymatic activity” value ([10]; control experiment, 10 mM glutamine) is reported as “no direct effect”.
